Laboratory results from US9649279B2, “Fortified micronutrient salt formulations” (Massachusetts Institute of Technology, priority 2013, dated 2017).
“Also recorded” adds a separate entry of the source.

Tests used:
[1] = Vitamin C stability and recovery under cooking conditions; assay type: physicochemical
Experimental: Formulations were tested for factors that increase stability and leakage characteristics for particular nutrients.
Ascorbic acid can become oxidixed and hydrolyzed, resulting in reduced bioactivity. Compounds specifically identified as stabilizing ascorbic acid, trans-Ferulic Acid (FA), Caffeic Acid (CA), and p-Coumaric Acid (p-CA), can be used in the particles and matrix to stabilize vitamin C.
To increase the loading of the ascorbic acid in the formulations, large amounts of ascorbic acid need to be added in the initial formulation process. However, the use of large amount of ascorbic acid can lower the pH of the water during the formulation, and this low pH condition can also dissolve the polymer we use to make the microparticles. To avoid this low pH issue, sodium ascorbate, which has equivalent bioactivity as ascorbic acid, can be used. Over 60 wt % of sodium ascorbate (NaAA) can be recovered after 2 hrs heating at 100° C.

[2] = In vitro release of micronutrients from EPO microspheres; assay type: physicochemical; conditions: for release in SGF / release in SGF after 0.5 hours: SGF at 37° C.; for release in water: water at room temperature and 100° C.
Text: Eight essential micronutrients, presented in Table 3, were encapsulated and their release studied in vitro.
In-house assays were developed for micronutrient detection and determination of encapsulation efficiency and release kinetics.

[3] = enteric coated, three month storage, 25° C./20% RH and 45° C./60% RH; cited from earlier work
[4] = Release of EPO-coated micronutrients in water then SGF (ELISA); assay type: physicochemical; conditions: for release in SGF / release in water: 5% EPO coating; for release in SGF: SGF at 37° C., after one hour; for release in water: water at 25° C. and 100° C., one hour; for stability in the formulations by ELISA: not degraded or denatured
Experimental: To mimic food preparation then ingestion, the samples were submerged in 4 mL water (at 25° C. or 100° C.) for one hour and transferred to 4 mL simulated gastric fluid at 37° C. for two hours.

[5] = Vitamin D3 stability and recovery; assay type: physicochemical
Experimental: Vitamin D3 is not stable under heat. Alteration involves ring-closure that allows generation of pyro- and isopyro-isomers. […] However, it degraded in water at 100° C. after 2 hours. The recovery of vitamin D3 in water at 100° C. is concentration-dependent. When the starting amount of vitamin D3 increased, the recovery after 2 hours cooking also went up, from 2% (15 μg), to 12% (60 μg), to 40% (240 μg), and to 60% (1 mg). The encapsulation of vitamin D3 in EPO matrix helped to stabilize the vitamin D3. The characteristic absorbance peak of vitamin D3 was preserved in D3-EPO after 100° C. in water for 2 hours. […] With HPLC, the recovery of D3 in D3-EPO was quantified to be around 47%.

[6] = Autoclaving of vitamin B12 in EPO-HA microspheres; assay type: physicochemical; conditions: 16 psig and 250° F. for 30 minutes
Experimental: Vitamin B12 was encapsulated in the EPO-HA microspheres and subjected to autoclaving. The autoclaving conditions were 16 psig and 250° F. for 30 minutes. […] Thus, the formulations can survive and prevent the leakage of MNs under autoclaving conditions.

## O=C1O[C@H]([C@@H](O)CO)C([O-])=C1O.[Na+] [NaAA, sodium ascorbate]
[1]; 2 hrs heating at 100° C.
  recovered after heating: Over 60 wt %

## CCCCCCCCCCCCCCCC(=O)OC/C=C(C)/C=C/C=C(C)/C=C/C1=C(C)CCCC1(C)C [Vitamin A, Retinyl Palimitate]
[2]; EPO-MS
  release in SGF: Complete release
  release in water: limited release
[3]
  losses of the micronutrient after storage: 50-99%

## Nc1nc2ncc(CNc3ccc(C(=O)N[C@@H](CCC(=O)O)C(=O)O)cc3)nc2c(=O)[nH]1 [Vitamin B9, folic acid]
[4]
  release in SGF: near complete release
  release in water: negligible release
  stability in the formulations by ELISA: stable
[4]; listed as B9
  release in SGF: released all
  release in water: no release
[2]; EPO-gelatin-microspheres
  release in SGF after 0.5 hours: Complete release
[2]; EPO-gelatin-microspheres, two hours
  release in 100° C. boiling water: Slight leakage
[2]; EPO-gelatin-microspheres, water, room temperature, two hours
  release at room temperature: Limited release

## O=C1O[C@H]([C@@H](O)CO)C(O)=C1O [Vitamin C, Ascorbic acid]
[2]; EPO-MS
  release in SGF after 0.5 hours: Complete release
[2]; EPO-MS, room temperature and 100° C. boiling water, two hours
  release in water after two hours: Limited release
[1]; increased concentration of the polymer coating
  release during cooking at 100° C.: significantly reduced

## C=C1CC[C@H](O)C/C1=C/C=C1\CCC[C@]2(C)[C@@H]([C@H](C)CCCC(C)C)CC[C@@H]12 [Vitamin D3, cholecalciferol]
[2]; EPO-MS
  release in SGF: Fast and complete release
  release in water: slow and limited release
[5]; 100° C. in water for 2 hours
  characteristic absorbance peak (UV spectrum) after heating: totally degraded
[5]; SGF (pH=1.2) at 37° C.
  stability in acidic condition: stable
[5]; water, 100° C., after 2 hours
  stability in water at 100° C.: degraded
[5]; water, room temperature
  stability in water at room temperature: stable

## Vitamin B12
[4]
  release in SGF: released all; also recorded: near complete release
  release in water: no release; also recorded: negligible release
  stability in the formulations by ELISA: stable
[2]; boiling, two hours, 1% oil added
  effect of 1% oil during boiling on release: did not increase release
[6]
  leakage under autoclaving: No severe leakage
